# Results as given in patent US8426345B2, “Method of drug design” (Alchemia Limited, priority 2005, dated 2013).
# Target: T1, Human SST5 somatostatin receptor (Homo sapiens, UniProt P35346)
# T1 construct: expressed in transfected cells; host or cells: HEK-293 EBNA cells (membranes)
# Experiment: Filter plate radio-ligand binding assay for SST5 receptor ([125I]SST-14 displacement)
# [1] = compound conc 50 μM, 2P library
# [2] = compound conc 250 μM, 2P library
# [3] = compound conc 500 μM, 2P library
# T1 sequence (P35346 whole entry): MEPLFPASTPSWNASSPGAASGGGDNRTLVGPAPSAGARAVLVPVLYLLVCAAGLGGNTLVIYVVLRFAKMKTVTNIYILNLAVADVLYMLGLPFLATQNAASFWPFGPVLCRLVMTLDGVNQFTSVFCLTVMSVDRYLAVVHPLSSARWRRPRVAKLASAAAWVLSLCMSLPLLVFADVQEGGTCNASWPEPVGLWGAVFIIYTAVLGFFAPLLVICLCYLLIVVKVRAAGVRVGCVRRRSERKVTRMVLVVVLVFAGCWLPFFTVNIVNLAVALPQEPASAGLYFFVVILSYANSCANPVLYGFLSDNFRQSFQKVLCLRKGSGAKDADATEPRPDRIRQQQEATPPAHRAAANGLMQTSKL
Compound,% SST5 radio-ligand binding displaced at conc 50 [1],% SST5 radio-ligand binding displaced at conc 250 [2],% SST5 radio-ligand binding displaced at conc 500 [3],"% SST5 radio-ligand binding displaced at conc 50 (conc 50 μM, 3P library)","% SST5 radio-ligand binding displaced at conc 250 (conc 250 μM, 3P library)","% SST5 radio-ligand binding displaced at conc 500 (conc 500 μM, 3P library)"
COC[C@H]1O[C@@H](OCc2ccc3ccccc3c2)[C@H](NC(=O)CCCN)[C@@H](OC)[C@@H]1O [Compound 28],− (% SST5 radio-ligand binding displaced at cone (μM) −<40%),− (% SST5 radio-ligand binding displaced at cone (μM) −<40%),++ (% SST5 radio-ligand binding displaced at conc (μM) >60%),,,
COC1C(O)C(COCc2ccc(Cl)cc2)OC(SC)C1NC(=O)CN (stereo not drawn) [Compound 29],− (% SST5 radio-ligand binding displaced at cone (μM) −<40%),− (% SST5 radio-ligand binding displaced at cone (μM) −<40%),− (% SST5 radio-ligand binding displaced at cone (μM) −<40%),,,
COC1C(O)C(COCc2ccc3ccccc3c2)OC(SC)C1NC(=O)CN (stereo not drawn) [Compound 30],− (% SST5 radio-ligand binding displaced at cone (μM) −<40%),− (% SST5 radio-ligand binding displaced at cone (μM) −<40%),+ (% SST5 radio-ligand binding displaced at cone (μM) 60>+>40%),,,
COCC1OC(SC)C(NC(=O)CN)C(OCc2ccc(Cl)cc2)C1O (stereo not drawn) [Compound 31],− (% SST5 radio-ligand binding displaced at cone (μM) −<40%),− (% SST5 radio-ligand binding displaced at cone (μM) −<40%),+ (% SST5 radio-ligand binding displaced at cone (μM) 60>+>40%),,,
COCC1OC(SC)C(NC(=O)CN)C(OCc2ccc3ccccc3c2)C1O (stereo not drawn) [Compound 32],− (% SST5 radio-ligand binding displaced at cone (μM) −<40%),− (% SST5 radio-ligand binding displaced at cone (μM) −<40%),− (% SST5 radio-ligand binding displaced at cone (μM) −<40%),,,
COC[C@H]1O[C@H](OCc2ccc(Cl)cc2)[C@H](NC(=O)CN)[C@H](OC)[C@@H]1O [Compound 33],− (% SST5 radio-ligand binding displaced at cone (μM) −<40%),− (% SST5 radio-ligand binding displaced at cone (μM) −<40%),− (% SST5 radio-ligand binding displaced at cone (μM) −<40%),,,
COC[C@H]1O[C@H](OCc2ccc3ccccc3c2)[C@H](NC(=O)CN)[C@H](OC)[C@@H]1O [Compound 34],− (% SST5 radio-ligand binding displaced at cone (μM) −<40%),− (% SST5 radio-ligand binding displaced at cone (μM) −<40%),− (% SST5 radio-ligand binding displaced at cone (μM) −<40%),,,
COC[C@H]1O[C@@H](OCc2ccc(Cl)cc2)[C@H](NC(=O)CN)[C@H](OC)[C@@H]1O [Compound 35],− (% SST5 radio-ligand binding displaced at cone (μM) −<40%),− (% SST5 radio-ligand binding displaced at cone (μM) −<40%),− (% SST5 radio-ligand binding displaced at cone (μM) −<40%),,,
COC[C@H]1O[C@@H](OCc2ccc3ccccc3c2)[C@H](NC(=O)CN)[C@H](OC)[C@@H]1O [Compound 36],− (% SST5 radio-ligand binding displaced at cone (μM) −<40%),− (% SST5 radio-ligand binding displaced at cone (μM) −<40%),+ (% SST5 radio-ligand binding displaced at cone (μM) 60>+>40%),,,
COC[C@H]1O[C@@H](SC)[C@H](NC(=O)CCN)[C@H](OCc2ccc(Cl)cc2)[C@@H]1O [Compound 37],− (% SST5 radio-ligand binding displaced at cone (μM) −<40%),− (% SST5 radio-ligand binding displaced at cone (μM) −<40%),− (% SST5 radio-ligand binding displaced at cone (μM) −<40%),,,
COC[C@H]1O[C@H](OCc2ccc(Cl)cc2)[C@H](NC(=O)CCN)[C@H](OC)[C@@H]1O [Compound 38],− (% SST5 radio-ligand binding displaced at cone (μM) −<40%),+ (% SST5 radio-ligand binding displaced at cone (μM) 60>+>40%),++ (% SST5 radio-ligand binding displaced at conc (μM) >60%),,,
COC[C@H]1O[C@@H](OCc2ccc(Cl)cc2)[C@H](NC(=O)CCN)[C@H](OC)[C@@H]1O [Compound 39],− (% SST5 radio-ligand binding displaced at cone (μM) −<40%),− (% SST5 radio-ligand binding displaced at cone (μM) −<40%),++ (% SST5 radio-ligand binding displaced at conc (μM) >60%),,,
COC[C@H]1O[C@@H](OCc2ccc3ccccc3c2)[C@H](NC(=O)CCN)[C@H](OC)[C@@H]1O [Compound 40],− (% SST5 radio-ligand binding displaced at cone (μM) −<40%),++ (% SST5 radio-ligand binding displaced at conc (μM) >60%),++ (% SST5 radio-ligand binding displaced at conc (μM) >60%),,,
CO[C@@H]1[C@H](O)[C@@H](COCc2ccc(Cl)cc2)O[C@@H](SC)[C@@H]1NC(=O)CCCN [Compound 41],− (% SST5 radio-ligand binding displaced at cone (μM) −<40%),− (% SST5 radio-ligand binding displaced at cone (μM) −<40%),− (% SST5 radio-ligand binding displaced at cone (μM) −<40%),,,
CO[C@@H]1[C@H](O)[C@@H](COCc2ccc3ccccc3c2)O[C@@H](SC)[C@@H]1NC(=O)CCCN [Compound 42],− (% SST5 radio-ligand binding displaced at cone (μM) −<40%),− (% SST5 radio-ligand binding displaced at cone (μM) −<40%),+ (% SST5 radio-ligand binding displaced at cone (μM) 60>+>40%),,,
COC[C@H]1O[C@@H](SC)[C@H](NC(=O)CCCN)[C@H](OCc2ccc(Cl)cc2)[C@@H]1O [Compound 43],− (% SST5 radio-ligand binding displaced at cone (μM) −<40%),− (% SST5 radio-ligand binding displaced at cone (μM) −<40%),− (% SST5 radio-ligand binding displaced at cone (μM) −<40%),,,
COC[C@H]1O[C@@H](OCc2ccc(Cl)cc2)[C@H](NC(=O)CCCN)[C@H](OC)[C@@H]1O [Compound 44],− (% SST5 radio-ligand binding displaced at cone (μM) −<40%),− (% SST5 radio-ligand binding displaced at cone (μM) −<40%),++ (% SST5 radio-ligand binding displaced at conc (μM) >60%),,,
COC[C@H]1O[C@@H](OCc2ccc3ccccc3c2)[C@H](NC(=O)CCCN)[C@H](OC)[C@@H]1O [Compound 45],− (% SST5 radio-ligand binding displaced at cone (μM) −<40%),+ (% SST5 radio-ligand binding displaced at cone (μM) 60>+>40%),++ (% SST5 radio-ligand binding displaced at conc (μM) >60%),,,
COC[C@H]1O[C@@H](SC)[C@H](NC(=O)CCN)[C@H](OCc2ccc3ccccc3c2)[C@@H]1O [Compound 57],− (% SST5 radio-ligand binding displaced at cone (μM) −<40%),− (% SST5 radio-ligand binding displaced at cone (μM) −<40%),− (% SST5 radio-ligand binding displaced at cone (μM) −<40%),,,
COC[C@H]1O[C@@H](SC)[C@H](NC(=O)CCCN)[C@H](OCc2ccc3ccccc3c2)[C@@H]1O [Compound 58],− (% SST5 radio-ligand binding displaced at cone (μM) −<40%),− (% SST5 radio-ligand binding displaced at cone (μM) −<40%),− (% SST5 radio-ligand binding displaced at cone (μM) −<40%),,,
COC[C@H]1O[C@H](OCc2ccc3ccccc3c2)[C@H](NC(=O)CCN)[C@H](OC)[C@@H]1O [Compound 59],+ (% SST5 radio-ligand binding displaced at cone (μM) 60>+>40%),++ (% SST5 radio-ligand binding displaced at conc (μM) >60%),++ (% SST5 radio-ligand binding displaced at conc (μM) >60%),,,
COC[C@H]1O[C@H](OCc2ccc3ccccc3c2)[C@H](NC(=O)CCN)[C@@H](OC)[C@@H]1O [Compound 60],,,,− (% SST5 radio-ligand binding displaced at cone (μM) −<40%),+ (% SST5 radio-ligand binding displaced at cone (μM) 60>+>40%),++ (% SST5 radio-ligand binding displaced at conc (μM) >60%)
COC[C@H]1O[C@@H](OCc2ccc3ccccc3c2)[C@H](NC(=O)CCN)[C@@H](OC)[C@@H]1O [Compound 61],,,,− (% SST5 radio-ligand binding displaced at cone (μM) −<40%),+ (% SST5 radio-ligand binding displaced at cone (μM) 60>+>40%),++ (% SST5 radio-ligand binding displaced at conc (μM) >60%)
COC[C@H]1O[C@@H](OCc2ccc3ccccc3c2)[C@H](NC(=O)CCN)[C@H](OC)[C@@H]1O [Compound 62],,,,− (% SST5 radio-ligand binding displaced at cone (μM) −<40%),++ (% SST5 radio-ligand binding displaced at conc (μM) >60%),++ (% SST5 radio-ligand binding displaced at conc (μM) >60%)
COC[C@H]1O[C@H](OCc2ccc3ccccc3c2)[C@H](NC(=O)CCN)[C@H](OC)[C@@H]1O [Compound 63],,,,+ (% SST5 radio-ligand binding displaced at cone (μM) 60>+>40%),++ (% SST5 radio-ligand binding displaced at conc (μM) >60%),++ (% SST5 radio-ligand binding displaced at conc (μM) >60%)
